# Results reported in patent US6723735B1, “Imidazo-pyridine derivatives as ligands for GABA receptors” (Merck Sharp & Dohme Ltd., priority 1999, dated 2004).
# Where a name gives a salt, the structure may show the parent alone.
row,melting point,Compound
1,191 to 192 °C,"c1cncc(-c2cccc(-n3cnc4cc(-c5ccoc5)cnc43)c2)c1 [Example 1, 6-(Furan-3-yl)-3-[3-(pyridin-3-yl)phenyl]-3H-imidazo[4,5-b]pyridine]"
2,179 to 180 °C,"c1ccc(-c2cnc3c(c2)ncn3-c2cccc(-c3cccnc3)c2)cc1 [Example 5, 6-Phenyl-3-[3-(pyridin-3-yl)phenyl]-3H-imidazo[4,5-b]pyridine]"
3,202 to 204 °C,"c1cc(-n2ccnc2)cc(-n2cnc3cc(-c4ccoc4)cnc32)c1 (as salt: oxalate) [Example 3, 6-(Furan-3-yl)-3-[3-(imidazol-1-yl)phenyl]-3H-imidazo[4,5-b]pyridine]"
